≈ marks a conversion by molar mass, not a printed value.
Key:
Experiment in all cases: microbe, parasite or virus in culture
P. aeruginosa = P. aeruginosa UNT 138-1 spontaneous mutant
Method in brief: (§1)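 Broth microdilution in MHB, 2-fold 12-point series from 128 or 64 down to 0.06 or 0.03 μg mL^−1, 5 × 10^5 CFU mL^−1. Extra runs in CAMHB per CLSI and in MHB with 1% agarose; n ≥ 6.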

E. coli = tested on: E. coli
Method in brief: as §1

K. pneumoniae = tested on: K. pneumoniae
Method in brief: as §1

## NC[C@H]1O[C@H](O[C@H]2[C@H](O)[C@@H](O[C@H]3O[C@H](CO)[C@@H](O)[C@H](N)[C@H]3O)[C@H](N)C[C@@H]2N)[C@H](N)C[C@@H]1O [TOB]
P. aeruginosa; AA139 selection 4X, plate 1, colony 5, drug-free passage 5
  MIC, broth microdilution: 0.5 µg/mL (≈ 1.07 µM)
P. aeruginosa; AA139 selection 4X, plate 1, colony 6, drug-free passage 1
  MIC, broth microdilution: 1 µg/mL (≈ 2.14 µM)
P. aeruginosa; AA139 selection 4X, plate 1, colony 6, drug-free passage 5
  MIC, broth microdilution: 0.5 µg/mL (≈ 1.07 µM)
P. aeruginosa; AA139 selection 4X, plate 1, colony 7, drug-free passage 1
  MIC, broth microdilution: 0.5, 0.5 µg/mL
P. aeruginosa; AA139 selection 4X, plate 1, colony 7, drug-free passage 5
  MIC, broth microdilution: 0.5, 0.5 µg/mL
P. aeruginosa; AA139 selection 4X, plate 2, colony 1, drug-free passage 1
  MIC, broth microdilution: 1, 1 µg/mL
P. aeruginosa; AA139 selection 4X, plate 2, colony 1, drug-free passage 5
  MIC, broth microdilution: 1, 1 µg/mL
P. aeruginosa; AA139 selection 4X, plate 2, colony 2, drug-free passage 1
  MIC, broth microdilution: 0.5, 0.5 µg/mL
P. aeruginosa; AA139 selection 4X, plate 2, colony 2, drug-free passage 5
  MIC, broth microdilution: 0.5, 0.5 µg/mL
P. aeruginosa; AA139 selection 4X, plate 2, colony 3, drug-free passage 1
  MIC, broth microdilution: 1 µg/mL (≈ 2.14 µM)
P. aeruginosa; AA139 selection 4X, plate 2, colony 3, drug-free passage 5
  MIC, broth microdilution: 0.5 µg/mL (≈ 1.07 µM)
P. aeruginosa; AA139 selection 4X, plate 2, colony 4, drug-free passage 1
  MIC, broth microdilution: 0.5, 0.5 µg/mL
P. aeruginosa; AA139 selection 4X, plate 2, colony 4, drug-free passage 5
  MIC, broth microdilution: 0.5, 0.5 µg/mL
P. aeruginosa; AA139 selection 4X, plate 2, colony 5, drug-free passage 1
  MIC, broth microdilution: 1 µg/mL (≈ 2.14 µM)
P. aeruginosa; AA139 selection 4X, plate 2, colony 5, drug-free passage 5
  MIC, broth microdilution: 0.5 µg/mL (≈ 1.07 µM)
P. aeruginosa; AA139 selection 4X, plate 2, colony 6, drug-free passage 1
  MIC, broth microdilution: 0.5, 0.5 µg/mL
P. aeruginosa; AA139 selection 4X, plate 2, colony 6, drug-free passage 5
  MIC, broth microdilution: 0.5, 0.5 µg/mL
P. aeruginosa; AA139 selection 4X, plate 2, colony 7, drug-free passage 1
  MIC, broth microdilution: 0.5, 0.5 µg/mL
P. aeruginosa; AA139 selection 4X, plate 2, colony 7, drug-free passage 5
  MIC, broth microdilution: 0.5, 0.5 µg/mL
P. aeruginosa; AA139 selection 8X, plate 1, colony 1, drug-free passage 1
  MIC, broth microdilution: 0.5 µg/mL (≈ 1.07 µM)
P. aeruginosa; AA139 selection 8X, plate 1, colony 1, drug-free passage 5
  MIC, broth microdilution: 2 µg/mL (≈ 4.28 µM)
P. aeruginosa; AA139 selection 8X, plate 1, colony 2, drug-free passage 1
  MIC, broth microdilution: 1 µg/mL (≈ 2.14 µM)
P. aeruginosa; AA139 selection 8X, plate 1, colony 2, drug-free passage 5
  MIC, broth microdilution: 0.5 µg/mL (≈ 1.07 µM)
P. aeruginosa; AA139 selection 8X, plate 1, colony 3, drug-free passage 1
  MIC, broth microdilution: 0.5, 0.5 µg/mL
P. aeruginosa; AA139 selection 8X, plate 1, colony 3, drug-free passage 5
  MIC, broth microdilution: 0.5, 0.5 µg/mL
P. aeruginosa; AA139 selection 8X, plate 1, colony 4, drug-free passage 1
  MIC, broth microdilution: 1 µg/mL (≈ 2.14 µM)
P. aeruginosa; AA139 selection 8X, plate 1, colony 4, drug-free passage 5
  MIC, broth microdilution: 0.5 µg/mL (≈ 1.07 µM)
P. aeruginosa; AA139 selection 8X, plate 1, colony 5, drug-free passage 1
  MIC, broth microdilution: 0.5, 0.5 µg/mL
P. aeruginosa; AA139 selection 8X, plate 1, colony 5, drug-free passage 5
  MIC, broth microdilution: 0.5, 0.5 µg/mL
P. aeruginosa; AA139 selection 8X, plate 2, colony 1, drug-free passage 1
  MIC, broth microdilution: 0.5, 0.5 µg/mL
P. aeruginosa; AA139 selection 8X, plate 2, colony 1, drug-free passage 5
  MIC, broth microdilution: 0.5, 0.5 µg/mL
E. coli; E. coli AUD172 parent strain not exposed to drug
  MIC, broth microdilution: 8 µg/mL (≈ 17.1 µM)
E. coli; E. coli AUD172 spontaneous mutant, AA139 selection 4X, plate 2, colony 2, drug-free passage 1
  MIC, broth microdilution: 8 µg/mL (≈ 17.1 µM)
E. coli; E. coli AUD172 spontaneous mutant, AA139 selection 4X, plate 2, colony 2, drug-free passage 5
  MIC, broth microdilution: 16 µg/mL (≈ 34.2 µM)
K. pneumoniae; K. pneumoniae 3010 parent strain not exposed to drug
  MIC, broth microdilution: 0.5 µg/mL (≈ 1.07 µM)
K. pneumoniae; K. pneumoniae 3010 spontaneous mutant, AA139 selection 4X, plate 1, colony 1, drug-free passage 1
  MIC, broth microdilution: 1 µg/mL (≈ 2.14 µM)
K. pneumoniae; K. pneumoniae 3010 spontaneous mutant, AA139 selection 4X, plate 1, colony 1, drug-free passage 5
  MIC, broth microdilution: 0.25 µg/mL (≈ 0.535 µM)
K. pneumoniae; K. pneumoniae 3010 spontaneous mutant, AA139 selection 8X, plate 1, colony 1, drug-free passage 1
  MIC, broth microdilution: 0.5 µg/mL (≈ 1.07 µM)
K. pneumoniae; K. pneumoniae 3010 spontaneous mutant, AA139 selection 8X, plate 1, colony 1, drug-free passage 5
  MIC, broth microdilution: 0.25 µg/mL (≈ 0.535 µM)
K. pneumoniae; K. pneumoniae ST258 parent strain not exposed to drug
  MIC, broth microdilution: 16 µg/mL (≈ 34.2 µM)
K. pneumoniae; K. pneumoniae ST258 spontaneous mutant, AA139 selection 4X, plate 1, colony 1, drug-free passage 1
  MIC, broth microdilution: 16, 16 µg/mL
K. pneumoniae; K. pneumoniae ST258 spontaneous mutant, AA139 selection 4X, plate 1, colony 1, drug-free passage 5
  MIC, broth microdilution: 16, 16 µg/mL

Source: paper PMC7311426, “An amphipathic peptide with antibiotic activity against multidrug-resistant Gram-negative bacteria” (Nature Communications, 2020)
